The source made the active and inactive calls. The calls are words filed in the database; no cut-off is given here.
Experiments:
RAW264.7 [1] = assay: Inhibition of LPS-induced NO production in mouse RAW264.7 cells at 1 uM pre-incubated for 1 hrs followed by LPS stimulation and measured after 24 hrs; format: functional, cell-based; settings: time 25.0 hrs
RAW264.7 [2] = assay: Inhibition of LPS-induced NO production in mouse RAW264.7 cells at 10 uM pre-incubated for 1 hrs followed by LPS stimulation and measured after 24 hrs; format: functional, cell-based; settings: time 25.0 hrs
RAW264.7 [3] = assay: Antiinflammatory activity in mouse RAW264.7 cells assessed as inhibition of LPS-induced NO production at 2.5 to 10 uM pre-incubated for 1 hrs followed by LPS stimulation and measured after 24 hrs; format: functional, cell-based; settings: dose 2.5-10 µM, time 25.0 hrs, DDE = dose-dependent effect
RAW264.7 [4] = assay: Antiinflammatory activity in mouse RAW264.7 cells assessed as reduction in LPS-induced IL-1beta mRNA expression at 2.5 to 10 uM pre-incubated for 1 hrs followed by LPS stimulation and measured after 24 hrs by qRT-PCR assay; format: functional, cell-based; settings: dose 2.5-10 µM, time 25.0 hrs, DDE = dose-dependent effect
RAW264.7 [5] = assay: Antiinflammatory activity in mouse RAW264.7 cells assessed as reduction in LPS-induced TNF-alpha mRNA expression at 2.5 to 10 uM pre-incubated for 1 hrs followed by LPS stimulation and measured after 24 hrs by qRT-PCR assay; format: functional, cell-based; settings: dose 2.5-10 µM, time 25.0 hrs, DDE = dose-dependent effect
RAW264.7 [6] = assay: Antiinflammatory activity in mouse RAW264.7 cells assessed as reduction in LPS-induced iNOS protein expression at 2.5 to 10 uM pre-incubated for 1 hrs followed by LPS stimulation and measured after 24 hrs by western blotting method; format: functional, cell-based; settings: dose 2.5-10 µM, time 25.0 hrs
RAW264.7 [7] = assay: Antiinflammatory activity in mouse RAW264.7 cells assessed as reduction in LPS-induced COX-2 protein expression at 2.5 to 10 uM pre-incubated for 1 hrs followed by LPS stimulation and measured after 24 hrs by western blotting method; format: functional, cell-based; settings: dose 2.5-10 µM, time 25.0 hrs
RAW264.7 [8] = assay: Antiinflammatory activity in mouse RAW264.7 cells assessed as reduction in LPS-induced NF-kappaB phosphorylation at 2.5 to 10 uM pre-incubated for 1 hrs followed by LPS stimulation and measured after 24 hrs by immunofluorescence staining assay; format: functional, cell-based; settings: dose 2.5-10 µM, time 25.0 hrs
RAW264.7 [9] = assay: Antiinflammatory activity in mouse RAW264.7 cells assessed as reduction in LPS-induced p38 phosphorylation at 2.5 to 10 uM pre-incubated for 1 hrs followed by LPS stimulation and measured after 24 hrs by western blotting method; format: functional, cell-based; settings: dose 2.5-10 µM, time 25.0 hrs, DDE = dose-dependent effect
RAW264.7 [10] = assay: Antiinflammatory activity in mouse RAW264.7 cells assessed as reduction in LPS-induced ERK phosphorylation at 2.5 to 10 uM pre-incubated for 1 hrs followed by LPS stimulation and measured after 24 hrs by western blotting method; format: functional, cell-based; settings: dose 2.5-10 µM, time 25.0 hrs, DDE = dose-dependent effect
RAW264.7 [11] = assay: Antiinflammatory activity in mouse RAW264.7 cells assessed as reduction in LPS-induced JNK phosphorylation at 2.5 to 10 uM pre-incubated for 1 hrs followed by LPS stimulation and measured after 24 hrs by western blotting method; format: functional, cell-based; settings: dose 2.5-10 µM, time 25.0 hrs, DDE = dose-dependent effect
[12] = Toxicity in LPS-induced sepsis in C57BL/6J mouse model assessed as decrease in ratio of kidney weight to body weight at 7 mg/kg,IG administrated for 72 hrs followed by LPS stimulation and measured after 12 hrs; format: organism-based; settings: in vivo, po, 84 h
[13] = Toxicity in LPS-induced sepsis in C57BL/6J mouse model assessed as decrease in ratio of kidney weight to body weight at 14 mg/kg,IG administrated for 72 hrs followed by LPS stimulation and measured after 12 hrs; format: organism-based; settings: in vivo, po, 84 h
[14] = Toxicity in LPS-induced sepsis in C57BL/6J mouse model assessed as decrease in ratio of spleen weight to body weight at 7 mg/kg,IG administrated for 72 hrs followed by LPS stimulation and measured after 12 hrs; format: organism-based; settings: in vivo, po, 84 h
[15] = Toxicity in LPS-induced sepsis in C57BL/6J mouse model assessed as decrease in ratio of spleen weight to body weight at 14 mg/kg,IG administrated for 72 hrs followed by LPS stimulation and measured after 12 hrs; format: organism-based; settings: in vivo, po, 84 h
[16] = Toxicity in LPS-induced sepsis in C57BL/6J mouse model assessed as decrease in ratio of heart weight to body weight at 7 mg/kg,IG administrated for 72 hrs followed by LPS stimulation and measured after 12 hrs; format: organism-based; settings: in vivo, po, 84 h
[17] = Toxicity in LPS-induced sepsis in C57BL/6J mouse model assessed as decrease in ratio of heart weight to body weight at 14 mg/kg,IG administrated for 72 hrs followed by LPS stimulation and measured after 12 hrs; format: organism-based; settings: in vivo, po, 84 h
Mus musculus [18] = assay: Antiinflammatory activity in LPS-induced sepsis in C57BL/6J mouse model assessed as reduction in inflammatory cell infiltration in liver at 7 mg/kg,IG administrated for 72 hrs followed by LPS stimulation and measured after 12 hrs by H and E staining method; format: functional, organism-based; settings: time 84.0 hrs
Mus musculus [19] = assay: Antiinflammatory activity in LPS-induced sepsis in C57BL/6J mouse model assessed as reduction in inflammatory cell infiltration in liver at 14 mg/kg,IG administrated for 72 hrs followed by LPS stimulation and measured after 12 hrs by H and E staining method; format: functional, organism-based; settings: time 84.0 hrs
Mus musculus [20] = assay: Antiinflammatory activity in LPS-induced sepsis in C57BL/6J mouse model assessed as reduction in morphological changes in kidney at 7 mg/kg,IG administrated for 72 hrs followed by LPS stimulation and measured after 12 hrs by H and E staining method; format: functional, organism-based; settings: time 84.0 hrs
Mus musculus [21] = assay: Antiinflammatory activity in LPS-induced sepsis in C57BL/6J mouse model assessed as reduction in morphological changes in kidney at 14 mg/kg,IG administrated for 72 hrs followed by LPS stimulation and measured after 12 hrs by H and E staining method; format: functional, organism-based; settings: time 84.0 hrs
Mus musculus [22] = assay: Antiinflammatory activity in LPS-induced sepsis in C57BL/6J mouse model assessed as reduction in morphological changes in heart at 7 mg/kg,IG administrated for 72 hrs followed by LPS stimulation and measured after 12 hrs by H and E staining method; format: functional, organism-based; settings: time 84.0 hrs
Mus musculus [23] = assay: Antiinflammatory activity in LPS-induced sepsis in C57BL/6J mouse model assessed as reduction in morphological changes in heart at 14 mg/kg,IG administrated for 72 hrs followed by LPS stimulation and measured after 12 hrs by H and E staining method; format: functional, organism-based; settings: time 84.0 hrs
Mus musculus [24] = assay: Antiinflammatory activity in LPS-induced sepsis in C57BL/6J mouse model assessed as reduction in morphological changes in spleen at 7 mg/kg,IG administrated for 72 hrs followed by LPS stimulation and measured after 12 hrs by H and E staining method; format: functional, organism-based; settings: time 84.0 hrs
Mus musculus [25] = assay: Antiinflammatory activity in LPS-induced sepsis in C57BL/6J mouse model assessed as reduction in morphological changes in spleen at 14 mg/kg,IG administrated for 72 hrs followed by LPS stimulation and measured after 12 hrs by H and E staining method; format: functional, organism-based; settings: time 84.0 hrs
Mus musculus [26] = assay: Antiinflammatory activity in LPS-induced sepsis in C57BL/6J mouse model assessed as reduction in serum AST level at 7 mg/kg,IG administrated for 72 hrs followed by LPS stimulation and measured after 12 hrs; format: functional, organism-based; settings: time 84.0 hrs
Mus musculus [27] = assay: Antiinflammatory activity in LPS-induced sepsis in C57BL/6J mouse model assessed as reduction in serum AST level at 14 mg/kg,IG administrated for 72 hrs followed by LPS stimulation and measured after 12 hrs; format: functional, organism-based; settings: time 84.0 hrs
Mus musculus [28] = assay: Antiinflammatory activity in LPS-induced sepsis in C57BL/6J mouse model assessed as reduction in serum Urea nitrogen level at 7 mg/kg,IG administrated for 72 hrs followed by LPS stimulation and measured after 12 hrs; format: functional, organism-based; settings: time 84.0 hrs
Mus musculus [29] = assay: Antiinflammatory activity in LPS-induced sepsis in C57BL/6J mouse model assessed as reduction in serum Urea nitrogen level at 14 mg/kg,IG administrated for 72 hrs followed by LPS stimulation and measured after 12 hrs; format: functional, organism-based; settings: time 84.0 hrs
Mus musculus [30] = assay: Antiinflammatory activity in LPS-induced sepsis in C57BL/6J mouse model assessed as reduction in serum creatinine level at 7 mg/kg,IG administrated for 72 hrs followed by LPS stimulation and measured after 12 hrs; format: functional, organism-based; settings: time 84.0 hrs
Mus musculus [31] = assay: Antiinflammatory activity in LPS-induced sepsis in C57BL/6J mouse model assessed as reduction in serum creatinine level at 14 mg/kg,IG administrated for 72 hrs followed by LPS stimulation and measured after 12 hrs; format: functional, organism-based; settings: time 84.0 hrs
Mus musculus [32] = assay: Antiinflammatory activity in LPS-induced sepsis in C57BL/6J mouse model assessed as reduction in serum LDH level at 7 mg/kg,IG administrated for 72 hrs followed by LPS stimulation and measured after 12 hrs; format: functional, organism-based; settings: time 84.0 hrs
Mus musculus [33] = assay: Antiinflammatory activity in LPS-induced sepsis in C57BL/6J mouse model assessed as reduction in serum LDH level at 14 mg/kg,IG administrated for 72 hrs followed by LPS stimulation and measured after 12 hrs; format: functional, organism-based; settings: time 84.0 hrs
Mus musculus [34] = assay: Antiinflammatory activity in LPS-induced sepsis in C57BL/6J mouse model assessed as reduction in serum HBDH level at 7 mg/kg,IG administrated for 72 hrs followed by LPS stimulation and measured after 12 hrs; format: functional, organism-based; settings: time 84.0 hrs
Mus musculus [35] = assay: Antiinflammatory activity in LPS-induced sepsis in C57BL/6J mouse model assessed as reduction in serum HBDH level at 14 mg/kg,IG administrated for 72 hrs followed by LPS stimulation and measured after 12 hrs; format: functional, organism-based; settings: time 84.0 hrs

For `COc1ccc(C2=NN(c3nc(C)cs3)C(c3cc(OC)c(OC)c(OC)c3)C2)cc1` (centres undefined), the inhibition (RAW264.7 [1]) was “Active”.

In the case of `Cc1csc(N2N=C(c3ccccc3Br)CC2c2ccc(Br)cc2)n1` (centres undefined), the inhibition (RAW264.7 [1]) is reported as “Active”.

For `COc1ccccc1C1=NN(c2nc(C)cs2)C(c2cc(OC)c(OC)c(OC)c2)C1` (centres undefined), the inhibition (RAW264.7 [1]) was “Active”.

For `COc1ccc(C2=NN(c3nc(C)cs3)C(c3ccc(Br)cc3)C2)cc1` (centres undefined), the inhibition (RAW264.7 [1]) was “Active”.

In the case of `COc1ccccc1C1=NN(c2nc(C)cs2)C(c2ccccc2C)C1` (centres undefined), the inhibition (RAW264.7 [1]) is reported as “Active”, the inhibition (RAW264.7 [2]) is reported as “Active” and the Activity (RAW264.7 [3]) is reported as “Dde”. The Activity (RAW264.7 [4]) was “Dde”, the Activity (RAW264.7 [5]) was “Dde” and the Activity (RAW264.7 [6]) was “Active”. For the same molecule, the Activity (RAW264.7 [7]) was “Active”, the Activity (RAW264.7 [8]) was “Active” and the Activity (RAW264.7 [9]) was “Dde”. The Activity (RAW264.7 [10]) was “Dde”, the Activity (RAW264.7 [11]) was “Dde” and the Activity [12] was “Non-Toxic”. For the same molecule, the Activity [13] was “Non-Toxic”, the Activity [14] was “Non-Toxic” and the Activity [15] was “Non-Toxic”. For the same molecule, the Activity [16] was “Non-Toxic”, the Activity [17] was “Non-Toxic” and the Activity (Mus musculus [18]) was “Active”. For the same molecule, the Activity (Mus musculus [19]) was “Active”, the Activity (Mus musculus [20]) was “Active” and the Activity (Mus musculus [21]) was “Active”. The Activity (Mus musculus [22]) was “Active”, the Activity (Mus musculus [23]) was “Active” and the Activity (Mus musculus [24]) was “Active”. The Activity (Mus musculus [25]) was “Active”, the Activity (Mus musculus [26]) was “Active” and the Activity (Mus musculus [27]) was “Active”. For the same molecule, the Activity (Mus musculus [28]) was “Active”, the Activity (Mus musculus [29]) was “Active” and the Activity (Mus musculus [30]) was “Active”. For the same molecule, the Activity (Mus musculus [31]) was “Active”, the Activity (Mus musculus [32]) was “Active” and the Activity (Mus musculus [33]) was “Active”. For the same molecule, the Activity (Mus musculus [34]) was “Active” and the Activity (Mus musculus [35]) was “Active”.

For `COc1ccccc1C1=NN(c2nc(C)cs2)C(c2ccc(Br)cc2)C1` (centres undefined), the inhibition (RAW264.7 [1]) was “Active”.

In the case of `COc1ccc(C2=NN(c3nc(C)cs3)C(c3ccc(C)cc3)C2)cc1` (centres undefined), the inhibition (RAW264.7 [1]) is reported as “Active”.

For `COc1ccccc1C1=NN(c2nc(C)cs2)C(c2ccc(C)cc2)C1` (centres undefined), the inhibition (RAW264.7 [1]) was “Active”.

With `Cc1csc(N2N=C(c3ccc(F)cc3)CC2c2ccc(Br)cc2)n1` (centres undefined) the inhibition (RAW264.7 [1]) was “Active”.

With `Cc1ccc(C2CC(c3ccccc3Br)=NN2c2nc(C)cs2)cc1` (centres undefined) the inhibition (RAW264.7 [1]) was “Active”.
